# How the values were obtained:
# Tritikale Sorte Prag 109 = test: Field test of pollen sterilisation, triticale Prag 109; format: in vivo; settings: 2% aqueous emulsion, 12 kg/ha
# From the text: (§1) Jedes Sterilisationsmittel wurde mindestens 5 Jahre lang geprüft.
# (§2) Die Entwicklung der Perioden der Organogenese wird zytologischüberwacht. Die Behandlung von Pflanzen mit dem Sterilisationsmittel erfolgt am Anfang der fünften Periode der Organogenese nach Kupermann.
# (§3) Mit dem Ahrenschiebe verwirklicht man die Isolierung von Hauptähren und anderen Stockwerken in Pergamentbeuteln. Bei Weizen und Tritikale werden Einzelisolatoren verwendet. Bei Roggen schliesst man je Ähre 5 bis 7 verschiedene nebeneinander befindliche Pflanzen unter einen gemeinsamen Isolator ein. Bei Hirse wird jede Rispe getrennt isoliert. Der Sterilitätsprozentsatz (X) für Weizen, Roggen, Tritikale und Hirse wird nach folgender Formel [formula] ermittelt.
# (§4) Die Kornzahl in nicht isolierten ähren von Kontrollpflanzen wird bedingt für 100% Ansetzen bei freier Bestäubung angenommen.
# (§5) Um zuverlässige Angaben zu erhalten, verwendet man 20 bis 25 Isolatoren jeder Wiederholung für Weisen und Tritikale, 10 bis 15 Gruppenisolatoren jeder Wiederholung für Roggen und Hirse.
# V.Periode der Organogenese (nach Kupermann) mit einer 2%igen wässrigen Emulsion von N-(3-Dimethylaminopropyl) maleaminsäure, N-Karbamoylmaleaminsäure behandelt. Die Emulsion enthält 0,01 Masse% Tetrahydrofuran […] und 0,1 Masse% Kalziumalkylbenzolsulfonat mit 12 bis 14 Kohlensotffatomen. Der Verbrauch an Präparat beträgt 12 kg/ha. Als Kontrolle dienen Pflanzen, behandelt mit einem Verdünner ohne Sterilisationsmittel.
# [1] = Toxicity test in animals (LD50); settings: in vivo; animal test, per kg animal weight; species and route not given
# From the text: Alle erfindungsgemässen N-substituierten Maleaminsäuren, welche als Sterilisationsmittel zur Verwendung kommen, waren auf die Toxizität im Tierversuch geprüft. Die Prüfergebnisse haben ergeben, dass die angegebenen Verbindungen von schwacher oder mittlerer Toxizität sind.
# [2] = system: Hirse Sorte Mironovskoe 94; test: Field test of pollen sterilisation, millet Mironovskoe 94; format: in vivo; settings: 1% aqueous emulsion, 8 kg/ha
# From the text: (§6) Die gametozide Aktivität der erfindungsgemässen Sterilisationsmittel war im Feldversuch in verschiedenen Bodenklimatischen Zonen mit Teilstücken von 10 m^2 Grösse in drei- bis viermaliger Wiederholung nachgewiesen. Jedes Sterilisationsmittel wurde mindestens 5 Jahre lang geprüft.
# as §2, §3, §4, §5
# Pflanzen der Hirse Sorte Mironovskoe 94 werden in der V. Periode der Organogenese (nach Kupermann) mit einer 1%igen wässrigen Emulsion von N-(2-Dimethylaminoäthyl)maleaminsäure, N-(3-Dimethylaminopropyl)maleaminsäure, N-Äthylmaleaminsäure, N-(2-Hydroxyäthyl)maleaminsäure, N-Karbamoylmaleaminsäure behandelt. Die Emulsion enthält 0,01 Masse% Dimethylaulfoxid und 0,1 Masse% Kalziumalkylbenzolsulfonat mit 12 bis 14 Kohlenstoffatomen. Der Verbrauch an Präparat beträgt 8 kg/ha. Als Kontrolle dienen Pflanzen, behandelt mit einem Verdünner ohne Sterilisationsmittel. Die Prüfergebnisse sind in der Tabelle 12 dargestellt. […] Periode der Organogenese erhalten.
# [3] = system: diploidem Roggen Sorte Voskhod 2; test: Field test of pollen sterilisation, diploid rye Voskhod 2; format: in vivo; settings: 1% aqueous emulsion, 10 kg/ha
# From the text: Die Emulsion enthält 0,1 Masse% Kalziumalkylbenzolsulfonat und 0,01 Masse% Dimethylformamid. Der Verbrauch an Präparat beträgt 10 kg/ha. Als Kontrolle dienen Pflanzen, behandelt mit einem Lösungsmittel ohne Sterilisationsmittel.
# [4] = system: tetraploidem Roggen Sorte Belta; test: Field test of pollen sterilisation, tetraploid rye Belta; format: in vivo; settings: 1% aqueous emulsion, 10 kg/ha
# From the text: as §6, §2, §3, §4, §5
# Pflanzen von tetraploidem Roggen Sorte Belta werden in der V. Periode der Organogenese (nach Kupermann) mit einer 1%igen wässrigen Emulsion von N-(2-Dimethylamino- .äthyl)maleaminsäure, N-(3-Dimethylaminopropyl)maleaminsäure, N-Äthylmaleaminsäure, N-(2-Hydroxyäthyl)maleaminsäure bzw. Karbamoylmaleaminsäure behandelt. Die Emulsion enthält 0,5 Masse% Kalziumalkylbenzolsulfonat mit 12 bis 14 Kohlenstoffatomen und 0,01 Masso% Tetrahydrofuran. Der Verbrauch an Präparat beträgt 10 kg/ha. Die Prüfergebnisse sind in der Tabelle 5 dargestellt. […] Periode der Organogenese erhalten.
# [5] = system: tetraploidem Roggen Sorte Ukrainskaya tetra; test: Field test of pollen sterilisation, tetraploid rye Ukrainskaya tetra; format: in vivo; settings: 1% aqueous emulsion, 6 kg/ha
# From the text: as §1, §2, §3, §4, §5
# Pflanzen von tetraploidem Roggen Sorte Ukrainskaya tetra werden in der V. Periode der Organogenese (nach Kupermann) mit einer 1%igen wässrigen Emulsion von N-(2-Dimethylaminoäthyl)maleaminsäure, N-(3-Dimethyl-aminopropu)maleaminsäure bzw. N-Karbamoylmaleaminsäure behandelt. Die Emulsion enthält 0,1 Masse% Kaliumalkylbenzolsulfonat mit 12 bis 14 Kohlenstoffatomen und 0,01 Masse% Dodezylsulfat. Der Verbrauch an Präparat beträgt 6 kg/ha. Als Kontrolle dienen Pflanzen, behandelt mit einem Verdünner ohne Sterilisationsmittel. Die Prüfergebnisse sind in der Tabelle 6 dargestellt.
# [6] = system: Winterweizens Sorte Mir.onovskaya 808; test: Field test of pollen sterilisation (gametocidal activity), winter wheat Mironovskaya 808; format: in vivo, Winterweizen; settings: 2% aqueous emulsion, 20 kg/ha
# From the text: Als Emulgierungsmittel wird 0,1 Masse% Kalziumalkylbenzolsulfonat mit 12 bis 14 Kohlenstoffatomen hinzugefügt. Als Adjuvans fährt man in die Emulsion 0,01 Masse% Dimethylsulfoxid ein. Der Verbrauch an Präparat beträgt 20 kg/ha. Als Kontrolle dienen Pflanzen, behandelt mit einem Verdünner ohne Sterilisationsmittel.
# [7] = system: Winterweizens Sorte Bezostaya 1; test: Field test of pollen sterilisation, winter wheat Bezostaya 1; format: in vivo, Winterweizen; settings: 2% aqueous emulsion, 16 kg/ha
# [8] = system: Sommerweizens Sorte Moskovskaya 35; test: Field test of pollen sterilisation, spring wheat Moskovskaya 35; format: in vivo, Sommerweizen; settings: 1% aqueous emulsion, 10 kg/ha
# From the text: Pflanzen des Sommerweizens Sorte Moskovskaya 35 werden in V. Periode der Organogenese (nach Kupermann) mit einer 1%igen wässrigen Emulsion von N-(2-Dimethyl-aminoäthyl)-maleaminsäure, N-(3-Dimethylaminopropyl)-maleaminsäure, N-Äthylmaleaminsäure, N-(2-Hydroxyäthyl) maleaminsäure bzw. N-Karbamoylmaleaminsäure behandelt. Die Emulsion enthält 0,5 Masse% Kalziumalkylbenzolsulfonat mit 12 bis 14 Kohlenstoffatomen als Emulgierungsmittel und 0,01 Masse% Dimethylformamid als Adjuvans. Der Verbrauch an Präparat beträgt 10 kg/ha. Als Kontrolle dienen Pflanzen, behandelt mit einem Verdünner ohne Sterilisationsmittel.
# [9] = system: diploidem Roggen Sorte Chulpan; test: Field test of pollen sterilisation, diploid rye Chulpan; format: in vivo; settings: 1% aqueous emulsion, 8 kg/ha
# From the text: Mit dem Ahrenschiebe verwirklicht man die Isolierung von Hauptähren und anderen Stockwerken in Pergamentbeuteln. […] Bei Roggen schliesst man je Ähre 5 bis 7 verschiedene nebeneinander befindliche Pflanzen unter einen gemeinsamen Isolator ein. […] Der Sterilitätsprozentsatz (X) für Weizen, Roggen, Tritikale und Hirse wird nach folgender Formel [formula] ermittelt.
# Die Emulsion enthält 0,01 Masse% Tetranydrofuran und 0,1 Masse% Kalziumalkylbenzolsulfonat mit 12 bis 14 Kohlenstoffatomen. Der Verbrauch an Präparat beträgt 8 kg/ha. Als Kontrolle dienen Pflanzen, behandelt mit einem Verdünner ohne Sterilisationsmittel.
# [10] = system: Sommerweizens Sorte Botanicheskaya 4; test: Field test of pollen sterilisation, spring wheat Botanicheskaya 4; format: in vivo, Sommerweizen; settings: 1% aqueous emulsion, 6 kg/ha
# From the text: Pflanzen des Sommerweizens Sorte Botanicheskaya 4 werden in der V. Periode der Organogenese (nach Kupermann) mit einer 1%igen Wässrigen Emulsion von N-(2-Dimethyl-aminoäthyl)-maleaminsäure, N-(3-Dimethylaminopropyl)-maleaminsäure, N-Äthylmaleaminsäure, N-(2-Hydroxyäthyl)-maleaminsäure bzw. N-Karbamoylmaleaminsäure behandelt. Die Emulsion enthält 0,5 Masse% Kalziumalkylbenzolsulfonat mit 12 bis 14 Kohlenstoffatomen und 0,01 Masse% Dimethylsulfoxid als Adjuvans. Der Verbrauch an Präparat beträgt 6 kg/ha. Als Kontrolle dienen Pflanzen, behandelt mit einem Verdünner ohne Sterilisationsmittel.
# [11] = system: diploidem Roggen Sorte Talovskaya 12; test: Field test of pollen sterilisation, diploid rye Talovskaya 12; format: in vivo; settings: 1% aqueous emulsion, 6 kg/ha
# [12] = system: Sonneblume Sorte Peredovik; test: Field test of pollen sterilisation, sunflower variety Peredovik; format: in vivo, Sonnenblume; settings: period V, 0.5% emulsion
# From the text: as §6, §2
# Zur Kontrolle der chemischen Sterilisation des Sonnenblumenpollens werden für jede Verbindung 45 behandelte Pflanzen jeder Wiederholung benutzt, wobei 15 Pflanzen von denen zwecks Selbstbestäurun^g des Blütenkörbchens isoliert werden, 15 andere Pflanzen mit einem Pollengemisch, gesammelt von 20 bis 25 behandelten isolierten Körbchen, bestäubt werden und 15 Pflanzen für freie Bestäubeung gelassen werden, damit das Ansetzen von Ächänen mit dem Pollen der Vaterform kontrolliert werden kann.
# Man beurteilt die Pollensterilität von Pflanzen der Sonnenblume nach der Pollenfertilität und -keimfähigkeit, nach den morphologischen Besonderheiten von Spermien und nach der Fähigkeit von Achänen zum Ansetzen bei der Bestäubung der behandelten isolierten Pflanzen mit dem Pollen der unbehandelten väterlichen Form. Die Lebensfähigkeit der Eizelle wird nach der Samenbildung von behandelten Pflanzen bei freier Bestäubung der väterlichen Form ermittelt.
# Pflanzen der Sonneblume Sorte Peredovik und Linie BK-119 werden in der V. Periode der Organogenese (nach Kupermann) mit einer 0,5%igen wässrigen Emulsion der N-Karbamoylmaleaminsäure behandelt. Die Emulsion enthält 0,01 Masse% Dimethylsulfoxid und 0,1 Masse% Kalziumalkylbenzolsulfonat mit 12 bis 14 Kohlenstoffatomen. Der Verbrauch an Präparat beträgt 3 kg/ha. Die gleichen Pflanzen werden mit einer 0,1masseprozentigen wässrigen Emulsion der N-(3-Dimethylaminopropyl)-maleaminsäure behandelt. Im letzten Falle enthält die Emulsion 0,01 Masse% Dodezylsulfat und 0,1 Masse% Kalziumalkylbenolsulfonat mit 12 bis 14 Kohlensotffatomen. Der Verbrauch an Präparat beträgt 1 kg/ha. Als Kontrolle dienen Pflanzen, behandelt mit einem Verdünner.ohne Sterilisationsmittel. Die Prufergenisse sind in der Tabelle 14 dargestellt. […] Periode der Organogenese erhalten.
# [13] = period V of organogenesis, free pollination
# [14] = period V of organogenesis, isolated ears
# [15] = period V, non-isolated control ears = 100%
smiles,measurement,setting,value
"CN(C)CCCNC(=O)/C=C\C(=O)O [Beispiel 2, N-(3-Dimethylaminopropyl)-maleaminsäure]",Prozentsatz der Sterilität,Tritikale Sorte Prag 109; period V of organogenesis,"100,0%"
same,Anzahl von Körnern der Ähre bei freier Bestäubung,Tritikale Sorte Prag 109; [13],"40,3"
same,Anzahl von Körnern der Ähre im Isolator,Tritikale Sorte Prag 109; [14],"0,0"
same,Prozentsatz des Ansetzens von Körnern bei freier Bestäubung,Tritikale Sorte Prag 109; [15],"88,0%"
same,LD50,[1],> 10000 mg/kg
same,Prozentsatz der Sterilität,[2]; period V of organogenesis,"100,0%"
same,Anzahl von Körnern der Rispe bei freier Bestäubung,[2]; [13],"214,5"
same,Anzahl von Körnern der Rispe im Isolator,"[2]; period V of organogenesis, isolated panicles","0,0"
same,Prozentsatz des Ansetzens von Körnern bei freier Bestäubung,"[2]; period V, non-isolated control = 100%","94,4%"
same,Prozentsatz der Sterilität,[3]; period V of organogenesis,"100,0%"
same,Anzahl von Körnern der Ähre bei freier Bestäubung,[3]; [13],"48,0"
same,Anzahl von Körnern der Ähre im Isolator,[3]; [14],"0,0"
same,Prozentsatz des Ansetzens von Körnern bei freier Bestäubung,[3]; [15],"87,0%"
same,Prozentsatz der Sterilität,[4]; period V of organogenesis,"100,0%"
same,Anzahl von Körnern der Ähre bei freier Bestäubung,[4]; [13],"47,7"
same,Anzahl von Körnern der Ähre im Isolator,[4]; [14],"0,0"
same,Prozentsatz des Ansetzens von Körnern bei freier Bestäubung,[4]; [15],"87,0%"
same,Prozentsatz der Sterilität,[5]; period V of organogenesis,"100,0%"
same,Anzahl von Körnern der Ähre bei freier Bestäubung,[5]; [13],"42,6"
same,Anzahl von Körnern der Ähre im Isolator,[5]; [14],"0,0"
same,Prozentsatz des Ansetzens von Körnern bei freier Bestäubung,[5]; [15],"95,1%"
same,Prozentsatz der Sterilität,[6]; period V of organogenesis,"99,8%"
same,Anzahl von Körnern der Ähre bei freier Bestäubung,[6]; [13],"41,5"
same,Anzahl von Körnern der Ähre im Isolator,[6]; [14],"0,1"
same,Prozentsatz des Ansetzens von Körnern bei freier Bestäubung,[6]; [15],"97,4%"
same,Prozentsatz der Sterilität,[7]; period V of organogenesis,"100,0%"
same,Anzahl von Körnern der Ähre bei freier Bestäubung,[7]; [13],"40,2"
same,Anzahl von Körnern der Ähre im Isolator,[7]; [14],"0,0"
same,Prozentsatz des Ansetzens von Körnern bei breier Bestäubung,[7]; [15],"93,7%"
same,Prozentsatz der Sterilität,[8]; period V of organogenesis,"98,9%"
same,Anzahl von Körnern der Ähre bei freier Bestäubung,[8]; [13],"27,0"
same,Anzahl von Körnern der Ähre im Isolator,[8]; [14],"0,3"
same,Prozentsatz des Ansetzens von Körnern bei freier Bestäubung,[8]; [15],"98,2%"
same,Prozentsatz der Sterilität,[9]; period V of organogenesis,"100,0%"
same,Anzahl von Körnern der Ähre bei freier Bestäubung,[9]; [13],"51,6"
same,Anzahl von Körnern der Ähre im Isolator,[9]; [14],"0,0"
same,Prozentsatz des Ansetzens von Körnern bei freier Bestäubung,[9]; [15],"90,8%"
same,Prozentsatz der Sterilität,[10]; period V of organogenesis,"99,7%"
same,Anzahl von Körnern der Ähre bei freier Bestäubung,[10]; [13],"27,7"
same,Anzahl von Körnern der Ähre im Isolator,[10]; [14],"0,1"
same,Prozentsatz des Ansetzens von Körnern bei freier Bestäubung,[10]; [15],"92,0%"
same,Prozentsatz der Sterilität,[11]; period V of organogenesis,"100,0%"
same,Anzahl von Körnern der Ähre bei freier Bestäubung,[11]; [13],"48,0"
same,Anzahl von Körnern der Ähre im Isolator,[11]; [14],"0,0"
same,Prozentsatz des Ansetzens von Körnern bei freier Bestäubung,[11]; [15],"85,4%"
"CN(C)CCCNC(=O)/C=C\C(=O)O [Beispiel 60, N-(3-Dimethylaminopropyl)-maleaminsäure]",Prozentsatz der Sterilität,"[12]; 3 kg/ha (N-Karbamoylmaleaminsäure) or 0.1% emulsion, 1 kg/ha (N-(3-Dimethylaminopropyl)-maleaminsäure)","100,0%"
same,Ansetzen von Ächänen bei freier Bestäubung in %,"[12]; 3 kg/ha or 0.1% emulsion, 1 kg/ha, free pollination","84,9%"

# Source: patent EP0374249A1, “METHOD OF STERILIZING PLANT POLLEN” (VSESOJUZNY NAUCHNO-ISSLEDOVATELSKY INST. SELSKOKHOZYAISTV. …, priority 1988, dated 1989)
